Experimental data reported in ChEMBL document CHEMBL4483862, “Open-source discovery of chemical leads for next-generation chemoprotective antimalarials” (2018).

System: Plasmodium berghei
Experiment: Luciferase/luciferin-expressing antifolate-resistant parasites were used to infect a culture of HepG2 cells that were pre-incubated with compounds. Infected hepatocytes emit light due to the luciferase reaction. Assay results are presented as the percent inhibition of light emission compared to control. […]
Type: functional
Conditions: sporozoite; for IC90: read-out: LUCIFERASE INFECTION ASSAY - IC90
[1] = read-out: LUCIFERASE INFECTION ASSAY - IC50

Structure (SMILES)	IC90 [µM]	IC50 [1] [µM]	also measured
CNc1nc2cnc(-c3ccc(OC)cc3C)cc2n1Cc1ccc(OC)c(OC)c1	1.22		IC50 (PBLUC_HILL_SLOPE 14.3, PBLUC_R_SQUARED 0.611, read-out: LUCIFERASE INFECTION ASSAY - IC50): 1.04 µM
O=C(Nc1nc2c(s1)CCc1ccccc1-2)c1cccc(-n2cnnn2)c1	> 10	> 10	
O=c1ccc(-c2nc3c4c5c(sc4ncn3n2)CCCCC5)n[nH]1	8.47		IC50 (HEPG2TOX_HILL_SLOPE 0.965, HEPG2TOX_R_SQUARED 0.912, PBLUC_HILL_SLOPE 1.19, PBLUC_R_SQUARED 0.691, read-out: LUCIFERASE INFECTION ASSAY - IC50): 1.33 µM
CCc1nnc(SCc2cc(=O)n3c(C)csc3n2)[nH]1	> 10		IC50 (FFLUC_HILL_SLOPE 120, FFLUC_R_SQUARED 0.18, read-out: LUCIFERASE INFECTION ASSAY - IC50): > 10 µM
c1ccn2c(Sc3ncnc4ccsc34)nnc2c1	> 10		IC50 (HEPG2TOX_HILL_SLOPE 1.03, HEPG2TOX_R_SQUARED 0.779, PBLUC_HILL_SLOPE 16.5, PBLUC_R_SQUARED 0.198, read-out: LUCIFERASE INFECTION ASSAY - IC50): 9.21 µM
CN(C)c1ccc(/C=C/c2cccc[n+]2C)cc1	> 9.01		IC50 (HEPG2TOX_HILL_SLOPE 3.15, HEPG2TOX_R_SQUARED 0.984, PBLUC_HILL_SLOPE 12.7, PBLUC_R_SQUARED 0.413, read-out: LUCIFERASE INFECTION ASSAY - IC50): 7.92 µM
COc1ccc(S(=O)(=O)N(Cc2ccc(C(=O)NC3CC3)cc2)C2CC2)cc1OC	7.7		IC50 (PBLUC_HILL_SLOPE 1.44, PBLUC_R_SQUARED 0.778, read-out: LUCIFERASE INFECTION ASSAY - IC50): 1.68 µM
Clc1ccc(CSCc2cc(SCc3ccc(Cl)cc3Cl)nc(-c3ccccn3)n2)cc1	0.781		IC50 (HEPG2TOX_HILL_SLOPE 1.3, HEPG2TOX_R_SQUARED 0.951, PBLUC_HILL_SLOPE 11.6, PBLUC_R_SQUARED 0.668, read-out: LUCIFERASE INFECTION ASSAY - IC50): 0.646 µM
COc1ccc(NC(=O)Nc2ccc3nc(-c4ccccc4)nn3c2)cc1OC	> 10	> 10	
COc1ccc(Nc2c(Cl)cc(OC)cc2Cl)cc1	3.85		IC50 (HEPG2TOX_HILL_SLOPE 2.37, HEPG2TOX_R_SQUARED 0.991, PBLUC_HILL_SLOPE 4.31, PBLUC_R_SQUARED 0.544, read-out: LUCIFERASE INFECTION ASSAY - IC50): 2.31 µM
CCCOc1ccc(/C=N/NC(=S)Nc2ccccc2[N+](=O)[O-])c(O)c1	1		IC50 (HEPG2TOX_HILL_SLOPE 3.34, HEPG2TOX_R_SQUARED 0.913, PBLUC_HILL_SLOPE 0.962, PBLUC_R_SQUARED 0.919, read-out: LUCIFERASE INFECTION ASSAY - IC50): 0.102 µM
Cc1nc2nc(-c3ccccc3)nn2c(N2CCCC2)c1Cc1ccccc1	> 8.93	3.28	
O=C(CSc1nc2ccccc2c(=O)n1-c1ccccc1F)N1CCSC1c1ccccc1F (centres undefined)	> 10	> 10	
CCOc1cccc2cc(C(C)Nc3ncnc4n[nH]cc34)oc12 (centres undefined)	6.49		IC50 (HEPG2TOX_HILL_SLOPE 1.82, HEPG2TOX_R_SQUARED 0.969, PBLUC_HILL_SLOPE 2.94, PBLUC_R_SQUARED 0.376, read-out: LUCIFERASE INFECTION ASSAY - IC50): 3.07 µM
CC(=O)Nc1ccc(Nc2cc3c(cn2)cc(-c2cccnc2)n3Cc2ccccc2)cc1	7.61		IC50 (PBLUC_HILL_SLOPE 3.49, PBLUC_R_SQUARED 0.716, read-out: LUCIFERASE INFECTION ASSAY - IC50): 4.06 µM
O=C(Nc1nc2ccccc2[nH]1)c1oc2ccccc2c1CSCc1ccccc1	5.1		IC50 (HEPG2TOX_HILL_SLOPE 3.05, HEPG2TOX_R_SQUARED 0.924, PBLUC_HILL_SLOPE 8.31, PBLUC_R_SQUARED 0.524, read-out: LUCIFERASE INFECTION ASSAY - IC50): 3.92 µM
CC(C)(C)c1ccc(NC(=O)Cc2csc(NC(=O)C3CC3)n2)cc1	> 10	> 10	
O=C(COc1ccc(F)cc1C(=O)c1cnn(-c2ccccc2)c1)Nc1ccc(Br)cc1F	> 10		IC50 (HEPG2TOX_HILL_SLOPE 0.0675, HEPG2TOX_R_SQUARED 0.0289, PBLUC_HILL_SLOPE 1.95, PBLUC_R_SQUARED 0.148, read-out: LUCIFERASE INFECTION ASSAY - IC50): > 10 µM
COc1ccc(-c2ccnn2-c2nc3ccccc3nc2C(F)(F)F)cc1	8.87		IC50 (FFLUC_HILL_SLOPE 12, FFLUC_R_SQUARED 0.622, HEPG2TOX_HILL_SLOPE 8.32, HEPG2TOX_R_SQUARED 0.411, PBLUC_HILL_SLOPE 4.15, PBLUC_R_SQUARED 0.462, read-out: LUCIFERASE INFECTION ASSAY - IC50): 5.22 µM
C(=C(c1nc2ccccc2s1)c1nc2ccccc2s1)c1ccccn1	> 10	> 10	
Cc1c(-c2cccc(Cl)c2)nc2ccccc2c1C(=O)OCC(=O)C(C#N)=C1Nc2ccccc2N1	> 10	> 10	

Structure (SMILES)	IC90 [µM]	IC50 [1] [µM]	also measured
O=S(=O)(c1ccc2ccccc2c1)N1CCCC1c1ccncc1 (centres undefined)	> 10		IC50 (HEPG2TOX_HILL_SLOPE 4.75, HEPG2TOX_R_SQUARED 0.828, PBLUC_HILL_SLOPE 11, PBLUC_R_SQUARED 0.196, read-out: LUCIFERASE INFECTION ASSAY - IC50): 9.32 µM
CC(C)(C)c1ccc(CN2C(=O)CS/C2=C\C(=O)c2ccc(C(C)(C)C)cc2)cc1	> 10		IC50 (FFLUC_HILL_SLOPE 1.26, FFLUC_R_SQUARED 0.691, PBLUC_HILL_SLOPE 1.17, PBLUC_R_SQUARED 0.615, read-out: LUCIFERASE INFECTION ASSAY - IC50): 1.59 µM
COc1cccc(C(=O)Nc2nc3ccc(Br)cn3n2)c1	> 9.51		IC50 (HEPG2TOX_HILL_SLOPE 1.29, HEPG2TOX_R_SQUARED 0.954, read-out: LUCIFERASE INFECTION ASSAY - IC50): > 9.51 µM
Fc1ccc2c(c1)C(Nc1nc(-c3cccnc3)nc3ccccc13)CCS2 (centres undefined)	4.27		IC50 (FFLUC_HILL_SLOPE 1.8, FFLUC_R_SQUARED 0.403, PBLUC_HILL_SLOPE 13.2, PBLUC_R_SQUARED 0.43, read-out: LUCIFERASE INFECTION ASSAY - IC50): 3.62 µM
CCC(Sc1ncnc2sc(C)c(C)c12)C(=O)Nc1cc(C)on1 (centres undefined)	> 10		IC50 (PBLUC_HILL_SLOPE 4.56, PBLUC_R_SQUARED 0.361, read-out: LUCIFERASE INFECTION ASSAY - IC50): 9.74 µM
CN(CCO)c1ccc(C(=O)c2ccc(N(C)CCO)cc2)cc1	9.22		IC50 (HEPG2TOX_HILL_SLOPE 1.17, HEPG2TOX_R_SQUARED 0.868, PBLUC_HILL_SLOPE 1.55, PBLUC_R_SQUARED 0.285, read-out: LUCIFERASE INFECTION ASSAY - IC50): 2.24 µM
CCN(CC)S(=O)(=O)c1ccc(=O)n(Cc2nc(N)nc(N(C)C)n2)c1	> 10	> 10	
O=C(Nc1ccc(Cl)cc1)Nc1cc(Cl)c(-n2cccc2)cc1Cl	> 8.67		IC50 (FFLUC_HILL_SLOPE 11.8, FFLUC_R_SQUARED 0.707, PBLUC_HILL_SLOPE 1.68, PBLUC_R_SQUARED 0.178, read-out: LUCIFERASE INFECTION ASSAY - IC50): 6.82 µM
Cc1cc(Br)ccc1OCC(=O)NC(C)c1ccccc1 (centres undefined)	> 9.48		IC50 (HEPG2TOX_HILL_SLOPE 4.44, HEPG2TOX_R_SQUARED 0.285, read-out: LUCIFERASE INFECTION ASSAY - IC50): > 9.48 µM
CCn1c(SCCC(=O)Nc2cc(C)on2)nnc1-c1ccc(C(C)(C)C)cc1	> 10	> 10	
O=C(Nc1cccnc1)N1CCc2nc(Nc3cc(Cl)cc(Cl)c3)ncc2C1	> 7.95	> 7.95	
COc1cccc(CN2CCN3C=C(C(=O)Nc4ccc(Oc5ccccc5)cc4)OC3=NC2=O)c1	> 10	> 10	
CC(Sc1nc(-c2ccccc2)c(-c2ccccc2)o1)C(=O)N1CCCC1 (centres undefined)	1.48		IC50 (HEPG2TOX_HILL_SLOPE 2.22, HEPG2TOX_R_SQUARED 0.0759, PBLUC_HILL_SLOPE 15.7, PBLUC_R_SQUARED 0.556, read-out: LUCIFERASE INFECTION ASSAY - IC50): 1.29 µM
CC(C)(C)c1cc(-c2nccs2)ccc1/C=N/O	> 12.7	> 12.7	
O=C(NCCNc1ccnc2cc(Cl)ccc12)c1ccccc1F	8.82	2.31	
Nc1nc(Cl)cc(NCCc2ccccc2)n1	> 13.3		IC50 (HEPG2TOX_HILL_SLOPE 4.29, HEPG2TOX_R_SQUARED 0.965, PBLUC_HILL_SLOPE 3.15, PBLUC_R_SQUARED 0.0969, read-out: LUCIFERASE INFECTION ASSAY - IC50): 10.4 µM
c1ccc(-c2cc3c(Oc4cccc5ccccc45)ncnc3s2)cc1	> 10		IC50 (FFLUC_HILL_SLOPE 2.93, FFLUC_R_SQUARED 0.065, PBLUC_HILL_SLOPE 1.19, PBLUC_R_SQUARED 0.417, read-out: LUCIFERASE INFECTION ASSAY - IC50): 2.85 µM
COC(=O)c1c(NC(=O)c2cccnc2)c2cc(NCC3CCCCC3)cnc2n1Cc1ccccc1	> 6.63		IC50 (HEPG2TOX_HILL_SLOPE 17.8, HEPG2TOX_R_SQUARED 0.594, PBLUC_HILL_SLOPE 8.22, PBLUC_R_SQUARED 0.247, read-out: LUCIFERASE INFECTION ASSAY - IC50): 5.43 µM
NC(=O)c1ccc(N2CCNCC2)nc1	> 10	> 10	
Clc1ccc(-c2nnc(-c3cc(Cl)cc(Cl)c3)o2)cc1	> 10.1	> 10.1	
O=C(Nc1nc2ccccn2c1C(=O)NC1CCCC1)c1cc(F)ccc1F	6.63		IC50 (HEPG2TOX_HILL_SLOPE 2.22, HEPG2TOX_R_SQUARED 0.565, PBLUC_HILL_SLOPE 4.18, PBLUC_R_SQUARED 0.45, read-out: LUCIFERASE INFECTION ASSAY - IC50): 3.92 µM
